Assay results as given in US6399745B1, “Use of leptin antagonists for treating insulin resistance in type II diabetes” (Aventis Pharma Deutschland GmbH, priority 1996, dated 2002).

Columns and labels:
isolated rat adipocytes [1] = assay: Lipogenesis (incorporation of D-glucose into toluene-extractable lipids) in isolated rat adipocytes after primary culture with leptin; format: cell-based; settings: for Lipogenesis, stimulation factor for insulin (stimulated/basal): Insulin concentration: 5 nM
Protocol: Adipocytes were prepared from the epididymal fat tissue of male Wistar rats (140-160 g, Hoechst AG breeding station, Kastengrund) by means of digesting with collagenase (Rodbell, 1964, J. Biol. Chem. 239, 375-380), washed twice with KRH (25 mM Hepes free acid, 25 mM Hepes sodium salt, 80 mM NaCl, 1 mM MgSO4, 2 mM CaCl2, 6 mM KCl, 1 mM sodium pyruvate, 0.5% BSA) and once with DMEM (Dulbecco's minimal essential medium), supplemented with 5.5 mM glucose, 20 mM Hepes (pH 7.4), 2% fetal calf serum, 1% BSA, 50 U of penicillin/ml, […], by means of flotation (800×g, 1 min, in small plastic tubes), and finally diluted to a volume of 20 ml of DMEM/g wet weight of the fat tissue (cell titer: approximately 2.5×10^5 cells/ml). The adipocytes were incubated, at 37° C. for 15-18 h under an atmosphere of 5% CO2 and with gentle shaking, in supplemented (see above) DMEM in the presence of 100 nM phenylisopropyladenosine (4 ml of DMEM to 1 ml of cells, cell titer approximately 5×10^4 cell/ml, in 50 ml sterile polypropylene: tubes) and in the presence or absence of leptin. The adipocytes were subsequently washed three times with cold KRH and adjusted to a cell titer of approximately 3×10^5 cells/ml by adding 0.7 ml of glucose-free KRH to the cell layer which remained after the complete removal of the last washing solution. In order to determine the capacity of the adipocytes to be stimulated by insulin, and their sensitivity to insulin, following the primary culture, the washed adipocytes were incubated at 37° C. for 20 min in the absence or presence of human insulin (0.02-50 nM final concentration), and glucose transport or lipogenesis was then measured. Lipogenesis was measured as the incorporation of D-glucose into toluene-extractable lipids (Moody et al., 1974, Horm. Metab. Res. 6, 12-16). 200 μl of the adipocyte suspension in KRH were incubated in scintillation vials, at 37° C. for 20 min, in 680 μl of KRH which was supplemented with 3.5 mM glucose and 20 μl of insulin solution. Lipogenesis was started by adding 100 μl of D-[3-^3H]glucose (25 μCi/ml KRH). After incubating at 37° C., and gently shaking under an atmosphere of 5% CO2, for 90 min, 10 ml of scintillation fluid (toluene-based) were added and the radioactivity in the toluene phase was determined after shaking vigorously and subsequent phase separation (at least 4 h of incubation). The radioactivity of the lipids in the toluene phase was corrected for the radioactivity of an incubation mixture which contained the same quantity of [^3H]glucose but no cells. Isolated rat adipocytes were incubated for 15 h in primary culture in the presence or absence of increasing concentrations of leptin. The cells were then washed and tested for glucose transport and lipogenesis in the basal and insulin (10 nM)-stimulated states. The stimulation factor for insulin was calculated as the ratio between insulin-stimulated and basal activities. Each value represents the mean from two independent adipocyte cultures with activity being determined two or three times in each case.

isolated rat adipocytes [2] = assay: Antagonism of fragment 116-167 to the leptin effect: insulin-stimulated lipogenesis; format: cell-based
Protocol: Adipocytes were prepared from the epididymal fat tissue of male Wistar rats (140-160 g, Hoechst AG breeding station, Kastengrund) by means of digesting with collagenase (Rodbell, 1964, J. Biol. Chem. 239, 375-380), washed twice with KRH (25 mM Hepes free acid, 25 mM Hepes sodium salt, 80 mM NaCl, 1 mM MgSO4, 2 mM CaCl2, 6 mM KCl, 1 mM sodium pyruvate, 0.5% BSA) and once with DMEM (Dulbecco's minimal essential medium), supplemented with 5.5 mM glucose, 20 mM Hepes (pH 7.4), 2% fetal calf serum, 1% BSA, 50 U of penicillin/ml, […], by means of flotation (800×g, 1 min, in small plastic tubes), and finally diluted to a volume of 20 ml of DMEM/g wet weight of the fat tissue (cell titer: approximately 2.5×10^5 cells/ml). […] In order to determine the capacity of the adipocytes to be stimulated by insulin, and their sensitivity to insulin, following the primary culture, the washed adipocytes were incubated at 37° C. for 20 min in the absence or presence of human insulin (0.02-50 nM final concentration), and glucose transport or lipogenesis was then measured. Lipogenesis was measured as the incorporation of D-glucose into toluene-extractable lipids (Moody et al., 1974, Horm. Metab. Res. 6, 12-16). […] The radioactivity of the lipids in the toluene phase was corrected for the radioactivity of an incubation mixture which contained the same quantity of [^3H]glucose but no cells. […]

| Substance | Lipogenesis, stimulation factor for insulin (stimulated/basal) (isolated rat adipocytes [1]; no leptin) | Lipogenesis, stimulation factor for insulin (stimulated/basal) (isolated rat adipocytes [2]; Insulin only, 5 nM (no leptin, no fragment)) | Lipogenesis, stimulation factor for insulin (stimulated/basal) (isolated rat adipocytes [1]; leptin 0.3 nM 15 h) | Lipogenesis, stimulation factor for insulin (stimulated/basal) (isolated rat adipocytes [1]; leptin 1 nM 15 h) | Lipogenesis, stimulation factor for insulin (stimulated/basal) (isolated rat adipocytes [1]; leptin 3 nM 15 h) | Lipogenesis, stimulation factor for insulin (stimulated/basal) (isolated rat adipocytes [1]; leptin 10 nM 15 h) | Lipogenesis, stimulation factor for insulin (stimulated/basal) (isolated rat adipocytes [1]; leptin 30 nM 15 h) | Lipogenesis, stimulation factor for insulin (stimulated/basal) (isolated rat adipocytes [1]; leptin 100 nM 15 h) | insulin sensitivity of stimulation of lipogenesis (isolated rat adipocytes [1]; leptin, basal values unaffected) | Lipogenesis, stimulation factor for insulin (stimulated/basal) (isolated rat adipocytes [2]; Leptin: 10 nM 17.5 h, no fragment, Insulin: 5 nM) |
| --- | --- | --- | --- | --- | --- | --- | --- | --- | --- | --- |
| Insulin: human insulin used to stimulate adipocytes [reference compound] | 3.9 | 3.9 |  |  |  |  |  |  |  |  |
| Leptin |  |  | 3.9 | 3.2 | 2.15 | 1.5 | 1.15 | 1.05 | drastically reduced | 1.5 |
